Patent US10912780B2, “Heterocyclic compounds useful as anti-bacterial agents and method for production thereof” (Bugworks Research, Inc., priority 2017, dated 2021)
Values after ≈ are worked out from the molar mass of the structure shown.

What was measured:
[1] = system: Acinetobacter baumannii ATCC 19606; test: Minimum Inhibitory Concentration (MIC) in LB media; type: cell-based; settings: for MIC: Acinetobacter baumannii, ATCC19606;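 as to all read-outs here: twofold compound dilutions from DMSO stocks in LB broth microplates, overnight incubation at 37 °C, growth read by absorbance at 600 nm, with DMSO and sterility controls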
[2] = system: Klebsiella pneumoniae ATCC 13883; test: Minimum Inhibitory Concentration (MIC) in LB media; type: cell-based; settings: for MIC: Klebsiella pneumoniae, ATCC13883, read-out: Minimum Inhibitory Concentration K. pneumoniae ATCC 13883
Text: (§1) The compounds of Formula (I) are of interest due to their potent antibacterial effects. The ability of the invention compounds disclosed herein to achieve an antibacterial effect may be evaluated with regard to their ability to inhibit the growth of bacterial species like Escherichia coli ATCC 25922, Staphylococcus aureus ATCC 29213, Klebsiella pneumoniae ATCC 13883, Acinetobacter baumannii ATCC 19606, Pseudomonas aeruginosa ATCC 27853, Enterococcus faecalis ATCC 29212 and Enterococcus faecalis ATCC 29212 using an assay based on the following Minimum Inhibitory Concentration (MIC) protocol:
(§2) The medium sterility is checked by incubating at 37° C. for a period of 48 h.
(§3) Bacterial cultures that are stored as glycerol stocks at −80° C. are sub cultured on LB agar plates to obtain isolated colonies. A single colony of each strain is cultured in LB broth. The cultures are incubated at 37 C, 200 rpm till they reach an optical density (OD at 600 nm) of 0.8 to 1. […] Test compounds are dissolved in dimethyl sulfoxide (DMSO) to a stock concentration of 4 mg/ml. A twofold dilution series of this DMSO stock is prepared in a 96 well V bottom microtitre plate from rows A to H. A 3 μL volume of these dilutions are transferred to a 96-well flat bottom microtitre assay plate. Controls to monitor the effects of DMSO and media sterility are included. Each well is inoculated with 150 μL of the above diluted culture. The plates are incubated at 37° C. overnight in a humidified incubator. The following morning, the plates are read using a Spectrophotometer at 600 nm wavelength. […] The antibacterial activity (MIC) determined against representative Gram positive (S. aureus, E. faecalis) and Gram negative (E.coli, -P. aeruginosa and A. baumannii) pathogen were reported Table 1.

[3] = system: Pseudomonas aeruginosa ATCC 27853; test: Minimum Inhibitory Concentration (MIC) in LB media; type: cell-based; settings: for MIC: Pseudomonas aeruginosa, ATCC27853, read-out: Minimum Inhibitory Concentration P. aeruginosa ATCC 27853
Text: as §1, §2, §3

[4] = system: Staphylococcus aureus ATCC 29213; test: Minimum Inhibitory Concentration (MIC) in LB media; type: cell-based; settings: for MIC: Staphylococcus aureus, ATCC29213, read-out: Minimum Inhibitory Concentration S. aureus ATCC 29213
Text: as §1, §2, §3

[5] = system: Escherichia coli ATCC 25922; test: Minimum Inhibitory Concentration (MIC) in LB media; type: cell-based; settings: for MIC: Escherichia coli, ATCC25922, read-out: Minimum Inhibitory Concentration E. coli ATCC 25922
Text: as §1, §2, §3

[6] = system: Enterococcus faecalis ATCC 29212; test: Minimum Inhibitory Concentration (MIC) in LB media; type: cell-based; settings: for MIC: Enterococcus faecalis, ATCC29212, read-out: Minimum Inhibitory Concentration E. faecalis ATCC 29212
Text: as §1, §2, §3

[7] = target: E. coli DNA gyrase (Escherichia coli, UniProt P0AES4+P0AES6); test: biochemical; settings: supercoiling assay
[8] = target: E. coli topoisomerase IV (Escherichia coli, UniProt P0AFI2+P20083); test: biochemical; settings: decatenation assay; read-out: E. coli Topo IV IC50
E. coli topoisomerase IV, sequence (P20083 whole entry): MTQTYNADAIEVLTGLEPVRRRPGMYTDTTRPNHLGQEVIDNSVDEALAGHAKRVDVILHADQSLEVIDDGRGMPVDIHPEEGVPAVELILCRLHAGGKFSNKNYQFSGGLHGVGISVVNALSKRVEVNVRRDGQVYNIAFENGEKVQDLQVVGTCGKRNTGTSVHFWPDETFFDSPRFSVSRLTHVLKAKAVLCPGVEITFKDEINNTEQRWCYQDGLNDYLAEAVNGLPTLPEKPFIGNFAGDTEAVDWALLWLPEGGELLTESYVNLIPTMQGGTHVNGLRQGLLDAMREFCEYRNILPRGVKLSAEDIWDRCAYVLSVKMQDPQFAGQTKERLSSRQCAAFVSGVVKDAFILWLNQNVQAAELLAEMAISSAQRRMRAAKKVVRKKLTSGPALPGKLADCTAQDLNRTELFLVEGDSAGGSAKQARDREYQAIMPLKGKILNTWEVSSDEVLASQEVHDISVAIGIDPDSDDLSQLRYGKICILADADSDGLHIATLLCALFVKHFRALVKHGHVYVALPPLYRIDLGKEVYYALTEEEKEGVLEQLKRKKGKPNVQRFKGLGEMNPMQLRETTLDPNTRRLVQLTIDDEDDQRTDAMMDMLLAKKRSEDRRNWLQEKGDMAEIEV
E. coli topoisomerase IV, sequence (P0AFI2 whole entry): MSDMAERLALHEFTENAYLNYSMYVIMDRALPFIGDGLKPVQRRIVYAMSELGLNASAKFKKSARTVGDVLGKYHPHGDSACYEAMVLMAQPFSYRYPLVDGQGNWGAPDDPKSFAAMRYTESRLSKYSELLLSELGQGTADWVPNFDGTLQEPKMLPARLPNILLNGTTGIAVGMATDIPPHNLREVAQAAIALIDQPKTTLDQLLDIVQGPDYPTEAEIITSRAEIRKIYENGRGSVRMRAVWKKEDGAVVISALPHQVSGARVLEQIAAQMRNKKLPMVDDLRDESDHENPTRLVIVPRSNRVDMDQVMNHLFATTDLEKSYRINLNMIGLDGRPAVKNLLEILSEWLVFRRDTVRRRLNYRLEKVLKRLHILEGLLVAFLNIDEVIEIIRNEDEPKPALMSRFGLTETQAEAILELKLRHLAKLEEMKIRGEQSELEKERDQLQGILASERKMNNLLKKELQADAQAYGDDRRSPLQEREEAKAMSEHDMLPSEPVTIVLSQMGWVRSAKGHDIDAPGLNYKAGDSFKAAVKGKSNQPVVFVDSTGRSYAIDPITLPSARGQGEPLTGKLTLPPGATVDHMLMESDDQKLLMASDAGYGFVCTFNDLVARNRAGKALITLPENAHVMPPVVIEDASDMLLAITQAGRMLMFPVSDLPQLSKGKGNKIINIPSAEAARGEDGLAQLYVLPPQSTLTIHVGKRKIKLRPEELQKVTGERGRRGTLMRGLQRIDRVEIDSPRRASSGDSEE

| SMILES | MIC [1] | MIC [2] | MIC [3] | MIC [4] | MIC [5] | MIC [6] | Minimum Inhibitory Concentration A. baumannii ATCC 19606 [1] | Minimum Inhibitory Concentration K. pneumoniae ATCC 13883 [2] | Minimum Inhibitory Concentration P. aeruginosa ATCC 27853 [3] | Minimum Inhibitory Concentration S. aureus ATCC 29213 [4] | Minimum Inhibitory Concentration E. coli ATCC 25922 [5] | Minimum Inhibitory Concentration E. faecalis ATCC 29212 [6] | IC50 [7] | IC50 [8] |
| --- | --- | --- | --- | --- | --- | --- | --- | --- | --- | --- | --- | --- | --- | --- |
| Cn1c(=O)ccc2ccc(F)c(C[C@@H](O)CNC[C@H]3CN(c4ccc5c(n4)NC(=O)CO5)C(=O)O3)c21 (single isomer, unassigned) [Example 19] | 1 µg/mL (≈ 2.01 µM) | 0.125 µg/mL (≈ 0.251 µM) | 2 µg/mL (≈ 4.02 µM) | 0.25 µg/mL (≈ 0.503 µM) | 0.25 µg/mL (≈ 0.503 µM) | 0.5 µg/mL (≈ 1.01 µM) | – | – | – | – | – | – | – | – |
| Cn1c(=O)ccc2ncc(F)c(CCCNCC3CN(c4ccc5c(n4)NC(=O)CO5)C(=O)O3)c21 (stereo not drawn) [Example 1b, Chiral 6-(5-(((3-(3-fluoro-5-methyl-6-oxo-5,6-dihydro-1,5-naphthyridin-4-yl)propyl)amino)methyl)-2-oxooxazolidin-3-yl)-2H-pyrido[3,2-b][1,4]oxazin-3(4H)-one] | – | – | – | – | – | – | <0.5 µg/mL | <1 µg/mL | <16 µg/mL | <4 µg/mL | <0.5 µg/mL | <4 µg/mL | – | – |
| Cn1c(=O)cnc2ccc(F)c(CCNC[C@H]3CN(c4ccc5c(n4)NC(=O)CO5)C(=O)O3)c21 [Example 4, (S)-6-(5-(((2-(6-fluoro-4-methyl-3-oxo-3,4-dihydroquinoxalin-5-yl)ethyl)amino)methyl)-2-oxooxazolidin-3-yl)-2H-pyrido[3,2-b][1,4]oxazin-3(4H)-one] | ≤ 0.015 µg/mL | 0.03 µg/mL (≈ 0.064 µM) | 0.25 µg/mL (≈ 0.534 µM) | ≤ 0.015 µg/mL | 0.03 µg/mL (≈ 0.064 µM) | 0.06 µg/mL (≈ 0.128 µM) | – | – | – | – | – | – | 0.007 µM | 0.093 µM |
| Cc1nc2ccc(F)c(CCNC[C@H]3CN(c4ccc5c(n4)NC(=O)CO5)C(=O)O3)c2n(C)c1=O [Example 6, (S)-6-(5-(((2-(6-fluoro-2,4-dimethyl-3-oxo-3,4-dihydroquinoxalin-5-yl)ethyl)amino)methyl)-2-oxooxazolidin-3-yl)-2H-pyrido[3,2-b][1,4]oxazin-3(4H)-one] | 0.015 µg/mL (≈ 0.0311 µM) | 0.125 µg/mL (≈ 0.259 µM) | 1 µg/mL (≈ 2.07 µM) | 0.015 µg/mL (≈ 0.0311 µM) | 0.06 µg/mL (≈ 0.124 µM) | 0.125 µg/mL (≈ 0.259 µM) | – | – | – | – | – | – | 0.0034 µM | 0.03 µM |

Second part, led by results:

| MIC [1] | MIC [2] | MIC [3] | MIC [4] | MIC [5] | MIC [6] | SMILES | Minimum Inhibitory Concentration A. baumannii ATCC 19606 [1] | Minimum Inhibitory Concentration K. pneumoniae ATCC 13883 [2] | Minimum Inhibitory Concentration P. aeruginosa ATCC 27853 [3] | Minimum Inhibitory Concentration S. aureus ATCC 29213 [4] | Minimum Inhibitory Concentration E. coli ATCC 25922 [5] | Minimum Inhibitory Concentration E. faecalis ATCC 29212 [6] | IC50 [7] | IC50 [8] |
| --- | --- | --- | --- | --- | --- | --- | --- | --- | --- | --- | --- | --- | --- | --- |
| < 0.5 µg/mL | < 1 µg/mL | < 16 µg/mL | < 4 µg/mL | < 0.5 µg/mL | < 4 µg/mL | Cn1c(=O)ccc2ncc(F)c(CCCNCC3CN(c4ccc5c(n4)NC(=O)CO5)C(=O)O3)c21 (racemic) [Example 1, 6-(5-(((3-(3-fluoro-5-methyl-6-oxo-5,6-dihydro-1,5-naphthyridin-4-yl)propyl)amino)methyl)-2-oxooxazolidin-3-yl)-2H-pyrido[3,2-b][1,4]oxazin-3(4H)-one] | – | – | – | – | – | – | – | – |
| 0.125 µg/mL (≈ 0.266 µM) | 0.25 µg/mL (≈ 0.533 µM) | 4 µg/mL (≈ 8.52 µM) | 0.125 µg/mL (≈ 0.266 µM) | 0.125 µg/mL (≈ 0.266 µM) | 1 µg/mL (≈ 2.13 µM) | CN1C(=O)CCc2ccc(F)c(CCNC[C@H]3CN(c4ccc5c(n4)NC(=O)CO5)C(=O)O3)c21 [Example 2, (S)-6-(5-(((2-(7-fluoro-1-methyl-2-oxo-1,2,3,4-tetrahydroquinolin-8-yl)ethyl)amino)methyl)-2-oxooxazolidin-3-yl)-2H-pyrido[3,2-b][1,4]oxazin-3(4H)-one] | – | – | – | – | – | – | – | – |
| 0.06 µg/mL (≈ 0.124 µM) | 0.25 µg/mL (≈ 0.518 µM) | 2 µg/mL (≈ 4.15 µM) | 0.06 µg/mL (≈ 0.124 µM) | 0.125 µg/mL (≈ 0.259 µM) | 0.25 µg/mL (≈ 0.518 µM) | Cc1nc2ccc(F)c(CCNC[C@@H]3CN(c4ccc5c(n4)NC(=O)CO5)C(=O)O3)c2n(C)c1=O [Example 7, (R)-6-(5-(((2-(6-fluoro-2,4-dimethyl-3-oxo-3,4-dihydroquinoxalin-5-yl)ethyl)amino)methyl)-2-oxooxazolidin-3-yl)-2H-pyrido[3,2-b][1,4]oxazin-3(4H)-one] | – | – | – | – | – | – | – | – |
| 0.5 µg/mL (≈ 0.894 µM) | 0.25 µg/mL (≈ 0.447 µM) | 2 µg/mL (≈ 3.57 µM) | 0.03 µg/mL (≈ 0.0536 µM) | 0.25 µg/mL (≈ 0.447 µM) | 0.5 µg/mL (≈ 0.894 µM) | CS(=O)(=O)CCn1c(=O)ccc2ccc(F)c(CCNC[C@H]3CN(c4ccc5c(n4)NC(=O)CO5)C(=O)O3)c21 [Example 11, (S)-6-(5-(((2-(7-fluoro-1-(2-(methylsulfonyl)ethyl)-2-oxo-1,2-dihydroquinolin-8-yl)ethyl)amino)methyl)-2-oxooxazolidin-3-yl)-2H-pyrido[3,2-b][1,4]oxazin-3(4H)-one] | – | – | – | – | – | – | – | – |
